Laboratory results reported in patent US9073862B2, “Substituted 2-oxy-quinoline-3-carboxamides as KCNQ2/3 modulators” (Grünenthal GmbH, priority 2010, dated 2015).

Target: T1, KCNQ2/3 channels (Homo sapiens, UniProt O43525+O43526)
T1 construct: expressed in transfected cells; host or cells: CHO-K1
Assay: Fluorescence assay using a voltage sensitive dye (fluorimetry)
Type: cell-based
Settings: CHO-K1 cells expressing KCNQ2/3 channels; for Emax: relative to retigabine = 100%, read-out: Fluorimetry % efficacy (retigabine = 100%)
Experimental: Method I. Fluorescence Assay Using a Voltage Sensitive Dye (Fluorimetry)
[…] CHO-K1 cells expressing KCNQ2/3 channels are cultivated adherently at 37° C., 5% CO2 and 95% humidity in cell culture bottles (e.g. 80 cm^2 TC flasks, Nunc) with DMEM-high glucose (Sigma Aldrich, D7777) including 10% FCS (PAN Biotech, e.g. 3302-P270521) or alternatively MEM Alpha Medium (1×, liquid, Invitrogen, #22571), 10% fetal calf serum (FCS) (Invitrogen, #10270-106, heat-inactivated) and the necessary selection antibiotics.
Before being sown out for the measurements, the cells are washed with 1×DPBS buffer Ca^2+/Mg^2+-free (e.g. Invitrogen, #14190-094) and detached from the bottom of the culture vessel by using Accutase (PAA Laboratories, #L11-007) (incubation with Accutase for 15 min at 37° C.). The cell number is determined using a CASY™ cell counter (TCC, Schärfe System). Depending on the optimal density for each individual cell line, 20,000-30,000 cells/well/100 μl are seeded onto 96-well Corning™ CellBIND™ assay plates (Flat Clear Bottom Black Polystyrene Microplates, #3340). Freshly seeded cells are then left to settle for one hour at room temperature, followed by incubation for 24 hours at 37° C., 5% CO2 and 95% humidity.
The voltage-sensitive fluorescent dye from the Membrane Potential Assay Kit (Red™ Bulk format part R8123 for FLIPR, MDS Analytical Technologies™) is prepared by dissolving the contents of one vessel Membrane Potential Assay Kit Red Component A in 200 ml of extracellular buffer (ES buffer, 120 mM NaCl, 1 mM KCl, 10 mM HEPES, 2 mM CaCl2, 2 mM MgCl2, 10 mM glucose; pH 7.4). After removal of the nutrient medium, the cells are washed once with 200 μl of ES buffer, then loaded for 45 min at room temperature in 100 μl of dye solution in the dark.
Fluorescence measurements are carried out in a BMG Labtech FLUOstar™, BMG Labtech NOVOstar™ or BMG Labtech POLARstar™ instrument (525 nm excitation, 560 nm emission, Bottom Read mode). After incubation with the dye, 50 μl of the test substances in the desired concentrations, or 50 μl of ES buffer for control purposes, are applied to the wells of the assay plate and incubated for 30 min at room temperature while being shielded from light. The fluorescence intensity of the dye is then measured for 5 min and the fluorescence value F1 of each well is thus determined at a given, constant time. 15 μl of a KCl solution are then added to each well (final concentration of potassium ions 92 mM). The change in fluorescence intensity is subsequently monitored until all the relevant values have been obtained (mainly 5-30 min). At a given time post KCl application, a fluorescence value F2 is determined, in this case at the time of the fluorescence peak.
For calculation, the fluorescence intensity F2 is corrected for the fluorescence intensity F1, and the activity (ΔF/F) of the target compound on the potassium channel is determined as follows:
In order to determine whether a substance has agonistic activity,
[formula] can be related to
[formula] of control wells.
[formula] is determined by adding to the well only the buffer solution instead of the test substance, determining the value F1K of the fluorescence intensity, adding the potassium ions as described above, and measuring a value F2K of the fluorescence intensity. F2K and F1K are then calculated as follows: […]
A substance has an agonistic activity on the potassium channel if
[formula] is greater than
Independently of the comparison of
[formula] it is possible to conclude that a target compound has agonistic activity if
[formula] increases dose dependently.
Calculations of EC50 and IC50 values are carried out with the aid of ‘Prism v4.0’ software (Graph Pad Software™).

EC50 [nM] | Emax [%] | Compound
143 | 74 | COc1nc2cc(C#N)ccc2c(C)c1C(=O)NCc1ccc(F)cc1 [Example 38, 7-cyano-N-[(4-fluorophenyl)-methyl]-2-methoxy-4-methyl-quinoline-3-carboxylic acid amide]
67 | 71 | COc1nc2cc(C(F)(F)F)ccc2c(C)c1C(=O)NCc1cccc(C)c1 [Example 21, 2-methoxy-4-methyl-N-(m-tolyl-methyl)-7-(trifluoromethyl)-quinoline-3-carboxylic acid amide]
218 | 147 | COc1nc2cc(F)c(F)cc2c(OC)c1C(=O)NCc1cccc(F)c1 [Example 17, 6,7-difluoro-N-[(3-fluorophenyl)-methyl]-2,4-dimethoxy-quinoline-3-carboxylic acid amide]
108 | 84 | CC(C)Oc1nc2ccccc2c(C(F)(F)F)c1C(=O)NCc1cccc(F)c1 [Example 53, N-[(3-fluorophenyl)-methyl]-2-isopropoxy-4-(trifluoromethyl)-quinoline-3-carboxylic acid amide]
– | 9 | COc1nc2cc(C(F)(F)F)ccc2c(C)c1C(=O)NCc1cc(O)cc(F)c1 [Example 43, N-[(3-fluoro-5-hydroxy-phenyl)-methyl]-2-methoxy-4-methyl-7-(trifluoromethyl)-quinoline-3-carboxylic acid amide]
56 | 105 | CCOc1nc2cc(C#N)ccc2c(C)c1C(=O)NCc1cccc(F)c1 [Example 36, 7-cyano-2-ethoxy-N-[(3-fluorophenyl)-methyl]-4-methyl-quinoline-3-carboxylic acid amide]
340 | 62 | COc1nc2cc(F)ccc2c(C)c1C(=O)NCc1cccc(F)c1 [Example 18, 7-fluoro-N-[(3-fluorophenyl)-methyl]-2-methoxy-4-methyl-quinoline-3-carboxylic acid amide]
131 | 117 | CCOc1nc2cc(C(F)(F)F)ccc2c(C)c1C(=O)NCc1ccc(C)cc1 [Example 26, 2-ethoxy-4-methyl-N-(p-tolyl-methyl)-7-(trifluoromethyl)-quinoline-3-carboxylic acid amide]
– | 43 | COc1nc2cc(F)cc(F)c2c(C)c1C(=O)NCc1cccc(F)c1 [Example 47, 5,7-difluoro-N-[(3-fluorophenyl)-methyl]-2-methoxy-4-methyl-quinoline-3-carboxylic acid amide]
52 | 164 | Cc1c(C(=O)NCc2ccc(F)cc2)c(OC(C)C)nc2cc(C(F)(F)F)ccc12 [Example 11, N-[(4-fluorophenyl)-methyl]-2-isopropoxy-4-methyl-7-(trifluoromethyl)-quinoline-3-carboxylic acid amide]
64 | 175 | CCOc1nc2cc(C(F)(F)F)ccc2c(C)c1C(=O)NCc1cccs1 [Example 2, 2-ethoxy-4-methyl-N-(thiophene-2-yl-methyl)-7-(trifluoromethyl)-quinoline-3-carboxylic acid amide]
1540 | 140 | COc1ccc(F)cc1CNC(=O)c1c(OC)nc2cc(C(F)(F)F)ccc2c1C [Example 41, N-[(5-fluoro-2-methoxy-phenyl)-methyl]-2-methoxy-4-methyl-7-(trifluoromethyl)-quinoline-3-carboxylic acid amide]
62 | 73 | COc1nc2cc(C(F)(F)F)ccc2c(C)c1C(=O)NCc1ccc(F)c(C)c1 [Example 23, N-[(4-fluoro-3-methyl-phenyl)-methyl]-2-methoxy-4-methyl-7-(trifluoromethyl)-quinoline-3-carboxylic acid amide]
92 | 99 | COc1nc2cc(C(F)(F)F)ccc2c(C)c1C(=O)NCc1ccc(C)c(F)c1 [Example 19, N-[(3-fluoro-4-methyl-phenyl)-methyl]-2-methoxy-4-methyl-7-(trifluoromethyl)-quinoline-3-carboxylic acid amide]
81 | 184 | COc1nc2cc(C(F)(F)F)ccc2c(C)c1C(=O)NCCCC(C)C [Example 28, 2-methoxy-4-methyl-N-(4-methyl-pentyl)-7-(trifluoromethyl)-quinoline-3-carboxylic acid amide]
79 | 173 | COc1nc2cc(C(F)(F)F)ccc2c(C)c1C(=O)NCc1cc(F)ccc1O [Example 44, N-[(5-fluoro-2-hydroxy-phenyl)-methyl]-2-methoxy-4-methyl-7-(trifluoromethyl)-quinoline-3-carboxylic acid amide]
– | 15 | COc1cc(F)cc(CNC(=O)c2c(OC)nc3cc(C(F)(F)F)ccc3c2C)c1 [Example 40, N-[(3-fluoro-5-methoxy-phenyl)-methyl]-2-methoxy-4-methyl-7-(trifluoromethyl)-quinoline-3-carboxylic acid amide]
229 | 70 | COc1nc2c(F)c(F)ccc2c(C)c1C(=O)NCc1cccc(F)c1 [Example 49, 7,8-difluoro-N-[(3-fluorophenyl)-methyl]-2-methoxy-4-methyl-quinoline-3-carboxylic acid amide]
261 | 85 | COc1nc2cc(C#N)ccc2c(C)c1C(=O)NCc1cccc(F)c1 [Example 37, 7-cyano-N-[(3-fluorophenyl)-methyl]-2-methoxy-4-methyl-quinoline-3-carboxylic acid amide]
– | 40 | COc1nc2ccccc2c(C(F)(F)F)c1C(=O)NCc1cccc(F)c1 [Example 51, N-[(3-fluorophenyl)-methyl]-2-methoxy-4-(trifluoromethyl)-quinoline-3-carboxylic acid amide]
390 | 119 | Cc1c(C(=O)NCc2cccc(F)c2)c(OCCO)nc2cc(C(F)(F)F)ccc12 [Example 9, N-[(3-fluorophenyl)-methyl]-2-(2-hydroxy-ethoxy)-4-methyl-7-(trifluoromethyl)-quinoline-3-carboxylic acid amide]
2060 | 87 | COc1nc2cc(C(F)(F)F)ccc2c(C)c1C(=O)NCc1ccc(O)c(F)c1 [Example 45, N-[(3-fluoro-4-hydroxy-phenyl)-methyl]-2-methoxy-4-methyl-7-(trifluoromethyl)-quinoline-3-carboxylic acid amide]
106 | 181 | CCOc1nc2cc(F)c(F)cc2c(OC)c1C(=O)NCc1cccc(F)c1 [Example 15, 2-ethoxy-6,7-difluoro-N-[(3-fluorophenyl)-methyl]-4-methoxy-quinoline-3-carboxylic acid amide]
315 | 96 | COc1nc2cc(F)c(F)cc2c(C)c1C(=O)NCc1cccc(F)c1 [Example 48, 6,7-difluoro-N-[(3-fluorophenyl)-methyl]-2-methoxy-4-methyl-quinoline-3-carboxylic acid amide]
299 | 59 | COc1nc2cc(F)ccc2c(C)c1C(=O)NCc1ccc(F)cc1 [Example 46, 7-fluoro-N-[(4-fluorophenyl)-methyl]-2-methoxy-4-methyl-quinoline-3-carboxylic acid amide]
182 | 96 | COc1nc2cc(C(F)(F)F)ccc2c(C)c1C(=O)NCc1ccc(C)cc1 [Example 25, 2-methoxy-4-methyl-N-(p-tolyl-methyl)-7-(trifluoromethyl)-quinoline-3-carboxylic acid amide]
